In article PMC7306898, “Concentration-Dependent Activity of Hydromethylthionine on Clinical Decline and Brain Atrophy in a Randomized Controlled Trial in Behavioral Variant Frontotemporal Dementia” (Journal of Alzheimer's Disease, 2020):

Experiments:
bvFTD patients [1] = test: Exposure-response and expanded Hill equation analysis; format: in vivo, human
Procedure: The protocol specified that PK plasma sampling was to be conducted only at sites with adequate facilities (i.e., a refrigerated centrifuge and adequate capability to freeze samples reliably). Blinded analyses were conducted at the University of Aberdeen GLP Test Facility. […] The method was validated for use in the Phase III studies over the range 0.2 to 10 ng/ml. […] Model development and estimation of steady state maximum plasma concentration (Cmax,ss) were determined independently by the Institute of Clinical Pharmacodynamics (ICPD, NY, USA). Cmax,ss estimates using a model validated in Phase I studies were based on in-clinic plasma concentration data obtained on Day 1 when the dose-sampling interval was accurately recorded. […] Change in ACE-R, ACE-III, FAQ, MMSE, Modified-CGIC, FRS, whole brain volume (WBV), lateral ventricular volume (LVV), and frontotemporal volume (FTV), as well as UPDRS Part III, were expressed as a function of Cmax,ss estimates grouped into four groups described in the results section. Cmax,ss values outside 3x the interquartile range were excluded from determination of concentration-response relationships, but were included in inferential statistical analyses.
A further analysis was undertaken (HS, BOS) using a modified form of the Hill equation which is commonly used in the analysis of concentration-response data in order to estimate the minimum and maximum plasma concentrations for expected treatment response over 52 weeks. […] In addition, a linear term was added to permit trends occurring at high concentrations to be included in the model. […] The modified Hill equation was applied to the data in the form:
change in parameter = Emin - (Emax x ([C]- 0.29))/(EC50 + ([C] -0.29)) + (A x ([C] -0.29))
where dose is in mg/day and Cmax,ss is in ng/ml units.

bvFTD patients [2] = test: Modified-CGIC, 52-week Phase III trial; format: in vivo, human
Text: The two doses were provided in identical blister packages as visually identical oral tablets to be taken for up to 52 weeks. The primary outcome was the Addenbrookes Cognitive Examination – Revised (ACE-R). The Functional Activities Questionnaire (FAQ) and reduction in progression of whole brain atrophy were alternative co-primary outcomes. Other outcomes included: Modified Alzheimer’s Disease Cooperative Study – Clinical Global Impression of Change (Modified-CGIC) determined by a third independent rater; Frontotemporal Dementia Rating Scale (FRS); MMSE (from MMSE items incorporated into ACE-R); Addenbrookes Cognitive Examination – III (a revised version of ACE-R which excludes MMSE items subject to copyright restrictions); change in brain volume measured by MRI in frontal and temporal lobes (FTV) and lateral ventricles (LVV); and the effect of hydromethylthionine in patients with known genetic mutations associated with bvFTD. Blood was collected prospectively for the purpose of population PK analyses.
The primary analyses were specified as a mixed model, repeated-measures analysis with an unstructured covariance matrix and no imputation for missing data. The model included visit (three levels corresponding to assessments at weeks 16, 32, and 52), treatment group (two levels, 4 mg or 100 mg twice a day), a visit by treatment group interaction term, use of AD-labelled medications (two levels, using or not using), geographic region (three levels: North America, Asia/Australia, Europe), and baseline value of the variable analyzed. The individual comparisons were implemented through contrasts. The Bonferroni-Holm correction was used to take account of multiplicity arising from alternative co-primary outcomes (FAQ and whole brain atrophy). We used the same method for all secondary analyses in predefined gated sequences such that no further adjustment of alpha (0.05) was needed.
The concentration-response analyses used a Mixed-effect Model Repeat Measurement (MMRM) with per-subject correction and an unstructured covariance matrix according to the following formula: […]

bvFTD patients [3] = test: Safety: treatment emergent adverse events, Safety Population; details: for deaths: none judged related to treatment
Text: Patients were monitored throughout the study for adverse events, including use of clinical laboratory tests (including measurement of methaemoglobin by pulse CO-oximetry), physical and neurological examinations, and 12-lead electrocardiograms (ECG) at all clinic visits (screening, baseline, and weeks 2, 16, 32, 52, and 56). The Unified Parkinson’s Disease Rating Scale Part III (UPDRS) [58] was included as a motor safety outcome measure requested by a regulatory agency, as was the Columbia-Suicide Severity Rating Scale (C-SSRS) [59], which were assessed at all visits. Patients were also systematically monitored for potential serotonin syndrome using a rating scale derived from four published diagnostic criteria [60], because of a theoretical potential for serotonin syndrome [61]. By protocol, amyloid related imaging abnormalities (ARIA), serotonin toxicity, and suicidality were to be reported as serious adverse events for expedited reporting.

[4] = system: P-glycoprotein (P-gp) transporter; design: method as in Investigator's Brochure; details: ref Investigator's Brochure; cited from earlier work
[5] = design: method as in PMID 31658058; details: cited from earlier work
[6] = 8 mg/day (n = 110), Safety Population
[7] = 200 mg/day (n = 108), Safety Population

SMILES: CN(C)c1ccc2c(c1)Sc1cc(N(C)C)ccc1N2 [hydromethylthionine, leuco-methylthioninium bis(hydromethanesulphonate)]
- plasma levels over which there are steep concentration-response relationships on clinical and MRI outcomes (bvFTD patients [1]; 8 mg/day dose, bvFTD): 0.3 to 0.6 ng/mL
- dose at which pharmacological activity is predicted to peak in bvFTD (bvFTD patients [1]; Hill equation analyses): ~30 mg/day
- doses at which treatment responses in bvFTD are predicted to be maximal / roughly comparable (bvFTD patients [1]; Hill equation analysis): 20 to 60 mg/day
- predicted treatment effect on whole brain atrophy (bvFTD patients [1]; at 30 mg/day dose): 18.52 cm^3
- predicted treatment effect on the FAQ scale (bvFTD patients [1]; at 30 mg/day dose, mean, bootstrap analysis): 7.73 units
- theoretical dose corresponding to the upper limiting concentration (bvFTD patients [1]; expanded Hill equation): 301 mg/day
- lower (minimum) limiting plasma concentration required for treatment response (bvFTD patients [1]; expanded Hill equation, 8 mg/day): 0.29 ng/mL
- upper limiting concentration at which the treatment effect would be lost (bvFTD patients [1]; expanded Hill equation, whole brain volume, 200 mg/day terciles): 13.6 ng/mL
- plasma concentration (Cmax,ss) threshold required for clinical pharmacological activity in bvFTD (bvFTD patients [1]; upper limit of the lowest 35% group at 8 mg/day): 0.346 ng/ml
- CGIC: Decline±SEM for LMTM 8 mg/day group (bvFTD patients [2]; 8 mg/day (n = 110), 52 weeks): –1.05±0.11
- reduction in decline, Modified-CGIC (bvFTD patients [2]; 8 mg/day, plasma levels above vs below […] threshold): 48%
- CGIC: Difference±SEM from LMTM 8 mg/day for 200 mg/day (bvFTD patients [2]; 200 mg/day (n = 104) vs 8 mg/day, 52 weeks): –0.04±0.16
- patients with TEAEs judged by the Investigator to be related to study drug (bvFTD patients [3]; 8 mg/day): 30%
- patients with a TEAE resulting in a dose reduction, interruption, or withdrawal of study drug (bvFTD patients [3]; 8 mg/day): 15 [14%]
- patients with at least one severe TEAE (bvFTD patients [3]; 8 mg/day): 13 (12%)
- subjects with myoclonus reported as an AE (bvFTD patients [3]; 8 mg/day): 2
- withdrawal rate over 12 months (bvFTD patients [3]; 8 mg/day): 15%
- Number (%) of Patients Reporting at Least One Adverse Event (TEAE) (bvFTD patients [3]; [6]): 88 (80%)
- Number (%) of patients with TEAE: Agitation (bvFTD patients [3]; [6]): 9 (8.2%)
- Number (%) of patients with TEAE: Blood folate decreased (bvFTD patients [3]; [6]): 6 (5.5%)
- Number (%) of patients with TEAE: Cough (bvFTD patients [3]; [6]): 7 (6.4%)
- Number (%) of patients with TEAE: Diarrhea (bvFTD patients [3]; [6]): 9 (8.2%)
- Number (%) of patients with TEAE: Dysuria (bvFTD patients [3]; [6]): 0
- Number (%) of patients with TEAE: Fall (bvFTD patients [3]; [6]): 10 (9.1%)
- Number (%) of patients with TEAE: Folate deficiency (bvFTD patients [3]; [6]): 2 (1.8%)
- Number (%) of patients with TEAE: Gastrointestinal disorders (bvFTD patients [3]; [6]): 28 (25.5%)
- Number (%) of patients with TEAE: Headache (bvFTD patients [3]; [6]): 8 (7.3%)
- Number (%) of patients with TEAE: Infections and infestations (bvFTD patients [3]; [6]): 38 (34.5%)
- Number (%) of patients with TEAE: Injury, poisoning and procedural complications (bvFTD patients [3]; [6]): 18 (16.4%)
- Number (%) of patients with TEAE: Insomnia (bvFTD patients [3]; [6]): 3 (2.7%)
- Number (%) of patients with TEAE: Investigations (bvFTD patients [3]; [6]): 17 (15.5%)
- Number (%) of patients with TEAE: Metabolism and nutrition disorders (bvFTD patients [3]; [6]): 12 (10.9%)
- Number (%) of patients with TEAE: Nasopharyngitis (bvFTD patients [3]; [6]): 8 (7.3%)
- Number (%) of patients with TEAE: Pollakiuria (bvFTD patients [3]; [6]): 3 (2.7%)
- Number (%) of patients with TEAE: Psychiatric disorders (bvFTD patients [3]; [6]): 29 (26.4%)
- Number (%) of patients with TEAE: Renal and urinary disorders (bvFTD patients [3]; [6]): 25 (22.7%)
- Number (%) of patients with TEAE: Respiratory, thoracic and mediastinal disorders (bvFTD patients [3]; [6]): 12 (10.9%)
- Number (%) of patients with TEAE: Urinary incontinence (bvFTD patients [3]; [6]): 13 (11.8%)
- Number (%) of patients with TEAE: Urinary tract infection (bvFTD patients [3]; [6]): 13 (11.8%)
- Number (%) of patients with TEAE: Vomiting (bvFTD patients [3]; [6]): 5 (4.5%)
- Number (%) of patients with TEAE: White blood cells urine positive (bvFTD patients [3]; [6]): 1 (0.9%)
- Number (%) of Patients Reporting at Least One Adverse Event (TEAE) (bvFTD patients [3]; 8 mg/day (n = 110), Safety Population, listed as Hydromethylthionine): 88 (80.0%)
- frequency of renal and urinary disorders (bvFTD patients [3]; 8 mg/day, above-threshold plasma levels): 26%
- frequency of renal and urinary disorders (bvFTD patients [3]; 8 mg/day, below-threshold plasma levels): 18%
- deaths (bvFTD patients [3]; 8 mg/day): 1
- patients with TEAEs judged by the Investigator to be related to study drug (bvFTD patients [3]; 200 mg/day): 56%
- patients with a TEAE resulting in a dose reduction, interruption, or withdrawal of study drug (bvFTD patients [3]; 200 mg/day): 35 [32%]
- patients with at least one severe TEAE (bvFTD patients [3]; 200 mg/day): 17 (16%)
- subjects with myoclonus reported as an AE (bvFTD patients [3]; 200 mg/day): 1
- withdrawal rate over 12 months (bvFTD patients [3]; 200 mg/day): 38%
- Number (%) of Patients Reporting at Least One Adverse Event (TEAE) (bvFTD patients [3]; [7]): 103 (95.4%)
- Number (%) of patients with TEAE: Agitation (bvFTD patients [3]; [7]): 9 (8.3%)
- Number (%) of patients with TEAE: Blood folate decreased (bvFTD patients [3]; [7]): 9 (8.3%)
- Number (%) of patients with TEAE: Cough (bvFTD patients [3]; [7]): 2 (1.9%)
- Number (%) of patients with TEAE: Diarrhea (bvFTD patients [3]; [7]): 24 (22.2%)
- Number (%) of patients with TEAE: Dysuria (bvFTD patients [3]; [7]): 6 (5.6%)
- Number (%) of patients with TEAE: Fall (bvFTD patients [3]; [7]): 13 (12.0%)
- Number (%) of patients with TEAE: Folate deficiency (bvFTD patients [3]; [7]): 6 (5.6%)
- Number (%) of patients with TEAE: Gastrointestinal disorders (bvFTD patients [3]; [7]): 42 (38.9%)
- Number (%) of patients with TEAE: Headache (bvFTD patients [3]; [7]): 5 (4.6%)
- Number (%) of patients with TEAE: Infections and infestations (bvFTD patients [3]; [7]): 34 (31.5%)
- Number (%) of patients with TEAE: Injury, poisoning and procedural complications (bvFTD patients [3]; [7]): 16 (14.8%)
- Number (%) of patients with TEAE: Insomnia (bvFTD patients [3]; [7]): 7 (6.5%)
- Number (%) of patients with TEAE: Investigations (bvFTD patients [3]; [7]): 34 (31.5%)
- Number (%) of patients with TEAE: Metabolism and nutrition disorders (bvFTD patients [3]; [7]): 14 (13.0%)
- Number (%) of patients with TEAE: Nasopharyngitis (bvFTD patients [3]; [7]): 7 (6.5%)
- Number (%) of patients with TEAE: Nervous system disorders (bvFTD patients [3]; [7]): 27 (25.0%)
- Number (%) of patients with TEAE: Pollakiuria (bvFTD patients [3]; [7]): 10 (9.3%)
- Number (%) of patients with TEAE: Psychiatric disorders (bvFTD patients [3]; [7]): 31 (28.7%)
- Number (%) of patients with TEAE: Renal and urinary disorders (bvFTD patients [3]; [7]): 28 (25.9%)
- Number (%) of patients with TEAE: Respiratory, thoracic and mediastinal disorders (bvFTD patients [3]; [7]): 8 (7.4%)
- Number (%) of patients with TEAE: Urinary incontinence (bvFTD patients [3]; [7]): 9 (8.3%)
- Number (%) of patients with TEAE: Urinary tract infection (bvFTD patients [3]; [7]): 14 (13.0%)
- Number (%) of patients with TEAE: Vomiting (bvFTD patients [3]; [7]): 9 (8.3%)
- Number (%) of patients with TEAE: White blood cells urine positive (bvFTD patients [3]; [7]): 6 (5.6%)
- deaths (bvFTD patients [3]; 200 mg/day): 3
- serotonin syndrome reported as an AE (bvFTD patients [3]; both doses, 20-item structured examination): No subject had serotonin syndrome reported as an AE
- effect of coadministration on digoxin (P-gp substrate) [4]: decreased concentrations
- induction of P-glycoprotein (P-gp) transporter [4]: w eak in ducer
- brain:plasma ratio compared to MTC [5]: ≥ 60 fold
